Data reported in ChEMBL document CHEMBL5649169 (ChemMedChem, 2018).

What was measured:
[1] = target: Protein FAM83E (Homo sapiens) (UniProt Q2M2I3)
[2] = target: Proteasome subunit alpha type-5 (Homo sapiens) (UniProt P28066)
[3] = target: Leucine-rich repeat flightless-interacting protein 1 (Homo sapiens) (UniProt Q32MZ4)
Homo sapiens [4] = species: Homo sapiens
[5] = target: STE20-like serine/threonine-protein kinase (Homo sapiens) (UniProt Q9H2G2)
[6] = target: Katanin p60 ATPase-containing subunit A-like 2 (Homo sapiens) (UniProt Q8IYT4)
[7] = target: MAP kinase-activated protein kinase 2 (Homo sapiens) (UniProt P49137)
[8] = target: Serine/threonine-protein kinase Nek2 (Homo sapiens) (UniProt P51955)
[9] = target: Wee1-like protein kinase (Homo sapiens) (UniProt P30291)
[10] = target: Proteasome subunit alpha type-1 (Homo sapiens) (UniProt P25786)
[11] = target: Isocitrate dehydrogenase [NADP], mitochondrial (Homo sapiens) (UniProt P48735)
[12] = target: KH domain-containing, RNA-binding, signal transduction-associated protein 1 (Homo sapiens) (UniProt Q07666)
[13] = target: F-actin-capping protein subunit beta (Homo sapiens) (UniProt P47756)
[14] = target: X-ray repair cross-complementing protein 6 (Homo sapiens) (UniProt P12956)
[15] = target: DDB1- and CUL4-associated factor 7 (Homo sapiens) (UniProt P61962)
[16] = target: Lipopolysaccharide-responsive and beige-like anchor protein (Homo sapiens) (UniProt P50851)
[17] = target: Signal recognition particle 9 kDa protein (Homo sapiens) (UniProt P49458)
[18] = target: Histone H1.10 (Homo sapiens) (UniProt Q92522)
[19] = target: T-complex protein 1 subunit beta (Homo sapiens) (UniProt P78371)
[20] = target: Keratin, type I cytoskeletal 18 (Homo sapiens) (UniProt P05783)
[21] = target: RNA-binding protein FXR1 (Homo sapiens) (UniProt P51114)
[22] = target: Stathmin-2 (Homo sapiens) (UniProt Q93045)
[23] = target: Mitogen-activated protein kinase kinase kinase kinase 3 (Homo sapiens) (UniProt Q8IVH8)
[24] = target: Serine/threonine-protein kinase TAO1 (Homo sapiens) (UniProt Q7L7X3)
[25] = target: Tyrosine-protein kinase ABL2 (Homo sapiens) (UniProt P42684)
[26] = target: Desmoplakin (Homo sapiens) (UniProt P15924)
[27] = target: RNA-binding protein EWS (Homo sapiens) (UniProt Q01844)
[28] = target: Ubiquitin carboxyl-terminal hydrolase 5 (Homo sapiens) (UniProt P45974)
[29] = target: Glycine--tRNA ligase (Homo sapiens) (UniProt P41250)
[30] = target: Spliceosome RNA helicase DDX39B (Homo sapiens) (UniProt Q13838)
[31] = target: Exosome complex component 10 (Homo sapiens) (UniProt Q01780)
[32] = target: Exosome RNA helicase MTR4 (Homo sapiens) (UniProt P42285)
[33] = target: Serine/threonine-protein kinase PAK 4 (Homo sapiens) (UniProt O96013)
[34] = target: Large ribosomal subunit protein bL12m (Homo sapiens) (UniProt P52815)
[35] = target: Neuroblast differentiation-associated protein AHNAK (Homo sapiens) (UniProt Q09666)
[36] = target: Small ribosomal subunit protein uS13 (Homo sapiens) (UniProt P62269)
[37] = target: Proteasome subunit alpha type-6 (Homo sapiens) (UniProt P60900)
[38] = target: T-complex protein 1 subunit eta (Homo sapiens) (UniProt Q99832)
[39] = target: ATPase family AAA domain-containing protein 3B (Homo sapiens) (UniProt Q5T9A4)
[40] = target: Succinate--CoA ligase [ADP/GDP-forming] subunit alpha, mitochondrial (Homo sapiens) (UniProt P53597)
[41] = target: Transmembrane protein 43 (Homo sapiens) (UniProt Q9BTV4)
[42] = target: Arginine--tRNA ligase, cytoplasmic (Homo sapiens) (UniProt P54136)
Homo sapiens [43] = species: Homo sapiens; remark: listed apart in the source
[44] = target: GPI-anchor transamidase component PIGS (Homo sapiens) (UniProt Q96S52)
[45] = target: Insulin-like growth factor 2 mRNA-binding protein 1 (Homo sapiens) (UniProt Q9NZI8)
[46] = target: Tubulin beta-4B chain (Homo sapiens) (UniProt P68371)
Further: assay method not described here.

Ubiquitin carboxyl-terminal hydrolase 5 (Homo sapiens), sequence (P45974 whole entry): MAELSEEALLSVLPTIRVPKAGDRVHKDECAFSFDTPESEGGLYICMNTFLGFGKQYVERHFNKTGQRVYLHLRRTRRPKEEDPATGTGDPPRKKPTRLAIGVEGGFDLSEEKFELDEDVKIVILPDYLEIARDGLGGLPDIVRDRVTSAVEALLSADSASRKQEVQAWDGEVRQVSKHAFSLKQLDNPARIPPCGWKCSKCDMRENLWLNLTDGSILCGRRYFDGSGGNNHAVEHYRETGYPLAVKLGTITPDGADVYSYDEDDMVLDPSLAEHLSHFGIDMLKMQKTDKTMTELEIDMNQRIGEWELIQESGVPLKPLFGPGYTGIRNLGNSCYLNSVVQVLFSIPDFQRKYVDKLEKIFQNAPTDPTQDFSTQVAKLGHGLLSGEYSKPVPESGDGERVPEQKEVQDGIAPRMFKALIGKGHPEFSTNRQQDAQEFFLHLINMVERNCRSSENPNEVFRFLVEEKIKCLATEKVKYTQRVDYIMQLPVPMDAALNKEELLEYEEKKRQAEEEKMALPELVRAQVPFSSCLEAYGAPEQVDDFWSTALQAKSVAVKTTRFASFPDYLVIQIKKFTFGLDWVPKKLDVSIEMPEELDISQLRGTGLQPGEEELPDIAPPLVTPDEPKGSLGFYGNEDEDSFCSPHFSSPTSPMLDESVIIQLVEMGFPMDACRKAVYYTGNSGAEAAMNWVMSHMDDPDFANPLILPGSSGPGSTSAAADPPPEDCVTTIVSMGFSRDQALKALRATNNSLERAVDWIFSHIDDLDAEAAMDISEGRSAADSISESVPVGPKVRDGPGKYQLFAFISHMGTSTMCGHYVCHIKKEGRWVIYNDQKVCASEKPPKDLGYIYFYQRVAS
Insulin-like growth factor 2 mRNA-binding protein 1 (Homo sapiens), sequence (Q9NZI8 whole entry): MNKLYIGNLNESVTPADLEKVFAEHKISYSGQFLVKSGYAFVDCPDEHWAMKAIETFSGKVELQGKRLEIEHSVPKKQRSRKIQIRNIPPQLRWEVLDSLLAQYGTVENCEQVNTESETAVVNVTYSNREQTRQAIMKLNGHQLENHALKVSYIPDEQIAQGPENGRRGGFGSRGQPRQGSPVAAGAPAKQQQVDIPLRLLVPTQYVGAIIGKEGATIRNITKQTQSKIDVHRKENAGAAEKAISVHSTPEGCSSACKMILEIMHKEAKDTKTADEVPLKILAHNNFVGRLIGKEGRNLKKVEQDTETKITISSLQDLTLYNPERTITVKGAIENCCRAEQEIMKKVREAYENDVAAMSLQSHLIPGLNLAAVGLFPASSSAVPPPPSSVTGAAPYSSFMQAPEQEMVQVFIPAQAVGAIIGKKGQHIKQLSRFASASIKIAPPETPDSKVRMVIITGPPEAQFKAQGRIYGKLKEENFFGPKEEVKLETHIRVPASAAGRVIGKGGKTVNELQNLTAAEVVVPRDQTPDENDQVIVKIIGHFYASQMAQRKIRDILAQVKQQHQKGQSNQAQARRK
Katanin p60 ATPase-containing subunit A-like 2 (Homo sapiens), sequence (Q8IYT4 whole entry): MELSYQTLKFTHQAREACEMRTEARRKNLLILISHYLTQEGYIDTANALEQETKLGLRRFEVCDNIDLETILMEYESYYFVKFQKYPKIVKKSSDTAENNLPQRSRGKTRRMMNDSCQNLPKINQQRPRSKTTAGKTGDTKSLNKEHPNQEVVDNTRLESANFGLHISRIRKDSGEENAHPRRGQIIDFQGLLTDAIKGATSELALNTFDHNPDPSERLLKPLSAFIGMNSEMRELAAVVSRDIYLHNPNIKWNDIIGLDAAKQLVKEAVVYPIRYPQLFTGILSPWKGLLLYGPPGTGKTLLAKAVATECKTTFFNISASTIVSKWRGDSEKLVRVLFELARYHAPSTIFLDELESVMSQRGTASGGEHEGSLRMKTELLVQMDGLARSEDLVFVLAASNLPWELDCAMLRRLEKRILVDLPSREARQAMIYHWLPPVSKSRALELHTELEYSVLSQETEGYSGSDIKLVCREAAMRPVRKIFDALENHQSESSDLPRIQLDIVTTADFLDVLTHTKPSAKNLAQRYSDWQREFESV
Histone H1.10 (Homo sapiens), sequence (Q92522 whole entry): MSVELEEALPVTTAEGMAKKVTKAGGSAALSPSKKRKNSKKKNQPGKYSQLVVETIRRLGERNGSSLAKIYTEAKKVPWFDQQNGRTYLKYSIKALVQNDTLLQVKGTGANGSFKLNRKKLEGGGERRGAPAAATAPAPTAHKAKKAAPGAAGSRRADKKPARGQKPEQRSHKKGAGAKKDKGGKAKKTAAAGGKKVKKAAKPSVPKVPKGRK
Succinate--CoA ligase [ADP/GDP-forming] subunit alpha, mitochondrial (Homo sapiens), sequence (P53597 whole entry): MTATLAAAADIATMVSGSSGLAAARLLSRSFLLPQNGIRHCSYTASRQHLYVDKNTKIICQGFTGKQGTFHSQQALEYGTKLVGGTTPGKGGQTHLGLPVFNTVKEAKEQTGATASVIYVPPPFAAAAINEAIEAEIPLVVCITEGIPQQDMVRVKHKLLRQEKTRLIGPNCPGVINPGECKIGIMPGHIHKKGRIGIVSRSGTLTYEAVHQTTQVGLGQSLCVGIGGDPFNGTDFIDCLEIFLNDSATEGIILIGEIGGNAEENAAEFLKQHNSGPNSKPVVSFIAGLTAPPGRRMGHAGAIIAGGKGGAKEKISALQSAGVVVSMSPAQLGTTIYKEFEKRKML
Serine/threonine-protein kinase TAO1 (Homo sapiens), sequence (Q7L7X3 whole entry): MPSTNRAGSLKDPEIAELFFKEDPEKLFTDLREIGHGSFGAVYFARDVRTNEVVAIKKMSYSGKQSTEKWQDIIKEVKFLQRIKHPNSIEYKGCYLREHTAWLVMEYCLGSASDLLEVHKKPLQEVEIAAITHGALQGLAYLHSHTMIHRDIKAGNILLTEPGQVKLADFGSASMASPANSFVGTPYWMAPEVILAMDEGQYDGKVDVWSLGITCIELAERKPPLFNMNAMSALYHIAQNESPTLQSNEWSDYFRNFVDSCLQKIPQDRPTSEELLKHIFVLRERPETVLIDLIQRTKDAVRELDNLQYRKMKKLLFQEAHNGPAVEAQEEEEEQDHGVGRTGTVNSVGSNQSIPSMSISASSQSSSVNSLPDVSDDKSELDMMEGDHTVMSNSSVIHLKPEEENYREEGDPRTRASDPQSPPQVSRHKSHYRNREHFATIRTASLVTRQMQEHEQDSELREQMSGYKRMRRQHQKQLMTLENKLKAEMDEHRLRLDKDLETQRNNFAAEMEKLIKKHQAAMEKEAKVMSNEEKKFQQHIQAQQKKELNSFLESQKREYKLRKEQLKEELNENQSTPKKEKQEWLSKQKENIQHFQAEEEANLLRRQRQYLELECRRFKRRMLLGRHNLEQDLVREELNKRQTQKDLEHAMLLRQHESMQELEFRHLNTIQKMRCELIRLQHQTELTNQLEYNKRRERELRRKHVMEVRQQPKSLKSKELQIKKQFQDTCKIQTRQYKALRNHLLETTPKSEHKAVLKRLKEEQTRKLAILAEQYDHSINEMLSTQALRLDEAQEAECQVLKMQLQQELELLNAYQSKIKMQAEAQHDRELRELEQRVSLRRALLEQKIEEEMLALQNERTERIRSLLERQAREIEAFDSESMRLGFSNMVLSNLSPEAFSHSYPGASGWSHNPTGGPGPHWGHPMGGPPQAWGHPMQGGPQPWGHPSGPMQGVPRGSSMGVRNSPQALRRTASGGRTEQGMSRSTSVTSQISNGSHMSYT
Mitogen-activated protein kinase kinase kinase kinase 3 (Homo sapiens), sequence (Q8IVH8 whole entry): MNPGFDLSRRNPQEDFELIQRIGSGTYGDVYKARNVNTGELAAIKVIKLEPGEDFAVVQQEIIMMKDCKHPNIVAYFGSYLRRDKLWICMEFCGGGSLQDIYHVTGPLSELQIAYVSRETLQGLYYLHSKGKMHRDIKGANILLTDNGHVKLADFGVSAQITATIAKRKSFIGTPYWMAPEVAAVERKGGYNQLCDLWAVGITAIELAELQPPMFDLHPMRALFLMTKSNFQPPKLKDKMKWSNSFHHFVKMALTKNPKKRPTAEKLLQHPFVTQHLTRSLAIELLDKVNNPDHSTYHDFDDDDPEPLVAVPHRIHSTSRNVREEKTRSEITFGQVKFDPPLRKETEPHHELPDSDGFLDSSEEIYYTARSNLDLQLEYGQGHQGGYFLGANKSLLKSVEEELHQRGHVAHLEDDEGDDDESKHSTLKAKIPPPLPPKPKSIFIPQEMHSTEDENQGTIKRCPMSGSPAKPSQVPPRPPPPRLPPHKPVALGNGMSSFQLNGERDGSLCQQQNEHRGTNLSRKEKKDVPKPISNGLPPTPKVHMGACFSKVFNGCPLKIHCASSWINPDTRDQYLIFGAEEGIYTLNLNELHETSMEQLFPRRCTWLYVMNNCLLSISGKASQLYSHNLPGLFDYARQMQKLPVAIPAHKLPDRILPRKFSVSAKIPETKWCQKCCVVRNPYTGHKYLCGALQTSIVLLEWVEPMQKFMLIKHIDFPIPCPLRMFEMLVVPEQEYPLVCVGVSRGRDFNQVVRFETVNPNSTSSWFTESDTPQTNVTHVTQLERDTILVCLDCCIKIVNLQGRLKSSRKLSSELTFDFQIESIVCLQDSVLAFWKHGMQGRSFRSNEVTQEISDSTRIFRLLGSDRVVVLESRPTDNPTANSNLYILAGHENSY
GPI-anchor transamidase component PIGS (Homo sapiens), sequence (Q96S52 whole entry): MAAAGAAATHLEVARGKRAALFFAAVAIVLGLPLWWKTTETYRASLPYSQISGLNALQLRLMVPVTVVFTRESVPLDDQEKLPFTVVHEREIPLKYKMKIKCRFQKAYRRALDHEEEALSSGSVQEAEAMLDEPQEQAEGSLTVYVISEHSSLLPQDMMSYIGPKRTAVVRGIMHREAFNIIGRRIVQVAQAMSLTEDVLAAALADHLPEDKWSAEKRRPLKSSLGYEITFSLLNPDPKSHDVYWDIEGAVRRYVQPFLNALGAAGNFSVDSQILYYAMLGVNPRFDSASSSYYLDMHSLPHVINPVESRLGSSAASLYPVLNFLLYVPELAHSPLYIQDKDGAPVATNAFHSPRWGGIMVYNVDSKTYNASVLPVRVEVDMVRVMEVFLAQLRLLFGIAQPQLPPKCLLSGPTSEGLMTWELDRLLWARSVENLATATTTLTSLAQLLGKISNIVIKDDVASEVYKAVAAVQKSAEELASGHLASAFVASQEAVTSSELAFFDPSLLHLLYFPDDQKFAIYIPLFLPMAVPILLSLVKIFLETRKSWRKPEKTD

`Cc1ccc(C(=O)Nc2cccc(C(F)(F)F)c2)cc1Nc1nc(-c2cccnc2)nc2c1cnn2C` gave an ED50 [1] of 0.141 µM, an ED50 [2] of 2.11 µM and an ED50 [3] of 3.51 µM. It also gave an ED50 (Homo sapiens [4]) of 3.11 µM, an ED50 [5] of 0.0219 µM and an ED50 [6] of 0.0376 µM. It also gave an ED50 [7] of 0.549 µM, an ED50 [8] of 0.011 µM and an ED50 [9] of 0.0311 µM. The ED50 [10] was 10.4 µM, the ED50 [11] was 0.00187 µM and the ED50 [12] was 0.118 µM. The ED50 [13] was 8.9 µM, the ED50 [14] was 0.0358 µM and the ED50 [15] was 1.12 µM. The ED50 [16] was 982 µM, the ED50 [17] was 5.32 µM and the ED50 [18] was 7.24 µM. The ED50 [19] was 0.0178 µM, the ED50 [20] was 7.35 µM and the ED50 [21] was 0.00957 µM. For the same compound, the ED50 [22] was 0.00439 µM, the ED50 [23] was 20500 µM and the ED50 [24] was 11.2 µM. It also gave an ED50 [25] of 1.06 µM, an ED50 [26] of 22.3 µM and an ED50 [27] of 54.1 µM. The ED50 [28] was 130 µM, the ED50 [29] was 0.0374 µM and the ED50 [30] was 18.4 µM. The ED50 [31] was 0.0037 µM, the ED50 [32] was 0.385 µM and the ED50 [33] was 9.68 µM. The ED50 [34] was 7.74 µM, the ED50 [35] was 4.79 µM and the ED50 [36] was 2.79 µM. It also gave an ED50 [37] of 3.6 µM, an ED50 [38] of 50.3 µM and an ED50 [39] of 0.0809 µM. The ED50 [40] was 0.0563 µM, the ED50 [41] was 0.00615 µM and the ED50 [42] was 0.886 µM. For the same compound, the ED50 (Homo sapiens [43]) was 17.4 µM, the ED50 [44] was 0.0298 µM and the ED50 [45] was 0.115 µM. The ED50 [46] was 2.68 µM.
`Cc1ccc(C(=O)Nc2cccc(C(F)(F)F)c2)cc1Nc1nc(-c2cccnc2)nc2nn(C)cc12` was tested, and the ED50 [1] was 155 µM, the ED50 [2] was 214 µM and the ED50 [3] was 0.228 µM. The ED50 (Homo sapiens [4]) was 0.00782 µM, the ED50 [5] was 0.187 µM and the ED50 [6] was 0.00647 µM. It also gave an ED50 [7] of 0.0517 µM, an ED50 [8] of 0.324 µM and an ED50 [9] of 2.63 µM. For the same compound, the ED50 [10] was 9.78 µM, the ED50 [11] was 16.8 µM and the ED50 [12] was 9.62 µM. The ED50 [13] was 0.393 µM, the ED50 [14] was 0.0567 µM and the ED50 [15] was 0.184 µM. For the same compound, the ED50 [16] was 0.167 µM, the ED50 [17] was 2440 µM and the ED50 [18] was 0.0167 µM. The ED50 [19] was 0.0532 µM, the ED50 [20] was 0.581 µM and the ED50 [21] was 0.00197 µM. The ED50 [22] was 10.5 µM, the ED50 [23] was 28.7 µM and the ED50 [24] was 0.0178 µM. It also gave an ED50 [25] of 2.04 µM, an ED50 [26] of 0.288 µM and an ED50 [27] of 11.8 µM. It also gave an ED50 [28] of 0.00988 µM, an ED50 [29] of 17.6 µM and an ED50 [30] of 0.957 µM. It also gave an ED50 [31] of 348 µM, an ED50 [32] of 4330 µM and an ED50 [33] of 25.1 µM. For the same compound, the ED50 [34] was 0.117 µM, the ED50 [35] was 0.11 µM and the ED50 [36] was 0.00691 µM. For the same compound, the ED50 [37] was 0.0409 µM, the ED50 [38] was 0.117 µM and the ED50 [39] was 0.0188 µM. It also gave an ED50 [40] of 0.877 µM, an ED50 [41] of 10.6 µM and an ED50 [42] of 0.443 µM. The ED50 (Homo sapiens [43]) was 0.0301 µM, the ED50 [44] was 0.255 µM and the ED50 [45] was 0.0177 µM. It also gave an ED50 [46] of 0.0012 µM.
